Test results from patent US5491167A, “Hexahydronaphthalene ester derivatives, their preparation and their therapeutic uses” (Sankyo Company, Limited, priority 1993, dated 1996).
Where a name gives a salt, the structure may show the parent alone.

Biological target: T1, HMG-CoA reductase (Rattus norvegicus, UniProt P51639)
T1 construct: an enzyme solution (rat liver microsomal fraction); from tissue; host or cells: rat liver microsomal fraction
T1 sequence (P51639 1-887): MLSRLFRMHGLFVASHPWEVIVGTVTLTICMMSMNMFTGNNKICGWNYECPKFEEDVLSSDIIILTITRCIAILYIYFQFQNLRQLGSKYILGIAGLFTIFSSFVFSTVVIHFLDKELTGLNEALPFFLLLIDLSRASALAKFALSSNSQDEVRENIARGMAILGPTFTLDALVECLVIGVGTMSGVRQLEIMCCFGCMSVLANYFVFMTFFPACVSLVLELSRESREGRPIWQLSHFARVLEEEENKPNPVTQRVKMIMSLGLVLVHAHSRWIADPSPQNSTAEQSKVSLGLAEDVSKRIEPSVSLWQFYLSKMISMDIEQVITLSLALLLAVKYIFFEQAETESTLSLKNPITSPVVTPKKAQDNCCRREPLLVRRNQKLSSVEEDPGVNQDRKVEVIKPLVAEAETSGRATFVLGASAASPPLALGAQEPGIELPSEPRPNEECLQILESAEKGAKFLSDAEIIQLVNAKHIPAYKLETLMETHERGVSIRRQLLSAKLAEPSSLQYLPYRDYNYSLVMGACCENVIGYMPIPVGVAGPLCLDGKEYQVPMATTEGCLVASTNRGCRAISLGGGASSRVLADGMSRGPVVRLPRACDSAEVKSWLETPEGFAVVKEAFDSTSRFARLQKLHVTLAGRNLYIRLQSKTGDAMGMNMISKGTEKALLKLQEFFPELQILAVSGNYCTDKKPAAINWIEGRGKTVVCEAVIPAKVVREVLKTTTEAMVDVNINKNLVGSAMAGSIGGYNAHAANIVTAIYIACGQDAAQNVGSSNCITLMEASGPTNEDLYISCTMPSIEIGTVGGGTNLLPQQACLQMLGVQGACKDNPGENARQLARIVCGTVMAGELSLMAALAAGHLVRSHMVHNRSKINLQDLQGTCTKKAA
Test: Determination of HMG-CoA Reductase Inhibitory Activity
Type: biochemical
Conditions: rat liver microsomal fraction, 0.2 mM [14C]HMG-CoA, pH7.4, 15 minutes at 37° C
Procedure: The ability of the preferred test compounds to inhibit the activity of HMG-CoA reductase was determined by the method of Koga et al. [Eur. J. Biochem. 209, 315-319 (1992)], the improved procedure of Kuroda et al. [Biochem. Biophys, Acta, 485, 70-81 (1977)] which a modification of the method of Shapiro et al. [Anal. Biochem. 31, 383-390, (1969)].
A solution of 5 μl of the preferred test compound dissolved in distilled water was added to 45 μl of a reaction mixture containing 100 mM of a potassium phosphate buffer (pH7.4), 0.2 mM of [^14 C]HMG-CoA, 10 mM of ethylenediaminetetraacetic acid disodium salt, 10 mM of dithiothreitol, 10 mM of NADPH (=reduced nicotinamide adenine dinucleotide phosphate) and an enzyme solution (rat liver microsomal fraction). The concentrations are expressed in terms of the final 50 μl of assay mixture. The resulting mixture was incubated for 15 minutes at 37° C. The reaction was then terminated by adding 10 μl of 2N aqueous hydrochloric acid, to lactonize the [^14 C]mevalonate produced. After 15 minutes incubation, 1 ml of a 1:1 by volume aqueous suspension of Biorex-5 was added and the tubes were vigorously mixed using a Vortex mixer. […] The supernatant (400 μl) was mixed with 4.5 ml of Optiflow™ in scintillation vials and the activity of the [^14 C]mevalonolactone was determined by a liquid scintillation counter.

`CCC(Oc1ccc(C)cc1)C(=O)O[C@H]1C[C@H](O)C=C2C=C[C@H](C)[C@H](CC[C@@H](O)C[C@@H](O)CC(=O)O)[C@H]21` (stereo partly drawn) [Example 3, Sodium Salt of (3R,5R)-3,5-dihydroxy-7-{(1S,2S,6S,8S,8aR)-1,2,6,7,8,8a-hexahydro-6-hydroxy-8-[(2RS)-2-(4-methylphenoxy)butyryloxy]-2-methyl-1-naphthyl}heptanoic acid] was tested. Which IC50 did it give?
Its IC50 is 0.0306 µM.

How did the IC50 turn out when `CCC(Oc1c(C)cccc1C)C(=O)O[C@H]1C[C@H](O)C=C2C=C[C@H](C)[C@H](CC[C@@H](O)C[C@@H](O)CC(=O)O)[C@H]21` (stereo partly drawn) [Example 6, Sodium salt of (3R,5R)-3,5-dihydroxy-7-{(1S,2S,6S,8S,8aR)-1,2,6,7,8,8a-hexahydro-6-hydroxy-8-[(2RS)-2-(2,6-dimethylphenoxy)butyryloxy]-2-methyl-1-naphthyl}heptanoicacid] was run?
The IC50 was 0.0335 µM.
